What all share (assay type): in vivo
For one test, the system named is Pyricularia oryzae. The note with it: rice seedlings (variety Sachikaze), sprayed 24 hours after inoculation at 10 ppm (30 ml/3 pots), further 6 days; number of lesions on the upper two leaves.
In test [1] the test system is Rhizoctonia solani. Description: Curative activity against sheath blight of rice plants (Experiment 3). Set-up: key: 0 = disease as untreated, 5 = no disease (complete control). The following applies: rice seedlings (variety Nihonbare), sprayed 24 hours after inoculation at 10 ppm (30 ml/3 pots), further 5 days; height of the lesions. As for the experimental part:
Rice seedlings (variety Nihonbare) at the 4 - 5 leaf stage were inoculated with the fungus, Rhizoctonia solani, by placing 4 - 5 oat grains on which the fungus had previously been cultured around the base of each rice seedling and keeping them in a moist chamber at 25 - 27 °C. After 24 hours, the rice seedlings were sprayed with an aqueous suspension of the test compound at a concentration of 10 ppm (30 ml/3 pots) and they then continued to be kept in the moist chamber for a further 5 days. The disease controlling index was given on the basis of the height of the lesions formed on the rice seedlings.
(§1) The compounds tested have the formula (1-1), in which Ar represents the group shown at the beginning of each part of the Table and R^1, R^2, X and Y are as defined in the Table.
(§2) The disease controlling index shown in the foregoing Tables 11 to 19 is indicated by the following codes: • 5--no disease (complete control) • 4--disease rate is less than 10% of the untreated plant • 3--disease rate is 10% - 30% of the untreated plant • 2--disease rate is 30% - 50% of the untreated plant • 1--disease rate is 50% - 70% of the untreated plant • 0--disease rate is almost same as the untreated plant.

In test [2] the test system is Rhizoctonia solani. Nature of the test: Preventive activity against sheath blight of rice plants by submerged application (Experiment 4). The following applies: rice seedlings (variety Nihonbare), applied to the water in the pots, 100 g per 10 ares, inoculated after 7 days, 5 days; height of the lesions.
Source text: Rice seedlings (variety Nihonbare) at the 4 - 5 leaf stage grown in pots were flooded to a depth of 1 cm with water. The test compound was then applied to the water in the pots in an amount corresponding to 100 g per 10 ares. After keeping the seedlings in a greenhouse for 7 days, the water was drained from the pots and the seedlings were inoculated with the fungus, Rhizoctonia solani, by placing 4 - 5 oat grains on which the fungus had previously been cultured around the base of each seedling. The seedlings were then kept in a moist chamber for 5 days at 25 - 27 °C. The disease controlling index was given on the basis of the height of the lesions formed on the rice seedlings.
Except for Table 14F, the compounds tested have the formula (1-1), in which Ar represents the group shown at the beginning of each part of the Table and R^1, R^2, X and Y are as defined in the Table.
as §2

The next test has as its system Puccinia recondita. Nature of the test: Curative activity against leaf rust of wheat (Experiment 6). The following applies: wheat seedlings (variety Norin No 61), sprayed after inoculation at 3 ppm (30 ml/3 pots), 10 days; diseased area on the first leaf. How it is done:
Wheat seedlings (variety Norin No 61) at the first leaf stage were inoculated with the fungus, Puccinia recondita, by spraying them with a spore suspension of the fungus. They were then kept in a moist chamber for 24 hours at 20 - 22 °C, after which they were moved to a greenhouse at 15 - 20 °C. […] The seedlings were then continuously kept in the greenhouse for 10 days. The disease controlling index was given on the basis of diseased area on the first leaf.

Another test deals with Sphaerotheca fuliginea. Description: Preventive activity against powdery mildew of cucumber (Experiment 8). The following applies: cucumber seedlings sprayed at 300 ppm, inoculated after 24 hours, evaluated after 7 days in greenhouse; diseased area on third and fourth leaves. How it is done:
Cucumber seedlings (variety Sagamihanpaku) at the 3 - 4 leaf stage were sprayed with an aqueous suspension of the test compound at a concentration of 300 ppm (30 ml/3 pots). The seedlings were then kept for 24 hours at room temperature, after which they were inoculated with conidida of Sphaerotheca fuliginea. After keeping the seedlings in a greenhouse for 7 days, the disease controlling index was evaluated on the basis of the diseased area on the third and fourth leaves.

The next test concerns Venturia inaequalis. Nature of the test: Preventive activity against apple scab (Experiment 9). The following applies: apple seedlings sprayed at 300 ppm, inoculated after 24 hours, 3 days moist chamber then 10 days greenhouse; diseased area on third and fourth leaves. How it is done: Apple seedlings at the 3 - 4 leaf stage were sprayed with an aqueous suspension of the test compound at a concentration of 300 ppm (30 ml/3 pots). The seedlings were then kept for 24 hours at room temperature, after which they were inoculated with the fungus, Venturia inaequalis, by spraying a spore suspension of the fungus over the seedlings. After inoculation, the seedlings were kept in a moist chamber for 3 days at 20 - 22 °C and then moved to a greenhouse at 20 - 22°C for 10 days. The disease controlling index was given on the basis of the diseased area on the third and fourth leaves.

Test [3] deals with Rhizoctonia solani. Nature of the test: Preventive activity against sheath blight of rice plants (Experiment 2). Set-up: key: 0 = disease as untreated, 5 = no disease (complete control). The following applies: rice seedlings (variety Nihonbare), sprayed at 100 ppm (30 ml/3 pots) 24 hours before inoculation, 5 days; height of the lesions. As for the experimental part:
Rice seedlings (variety Nihonbare) at the 4 - 5 leaf stage were sprayed with an aqueous suspension of the test compound at a concentration of 100 ppm (30 ml/3 pots). The seedlings were then kept for 24 hours at room temperature, after which they were inoculated with the fungus, Rhizoctonia solani, by placing 4 - 5 oat grains on which the fungus had previously been cultured around the base of each seedling. The seedlings were then kept in a moist chamber for 5 days at 25 - 27 °C. The disease controlling index was given on the basis of the height of the lesions formed on the rice seedlings.
Except in Table 12G, the compounds tested have the formula (1-1), in which Ar represents the group shown at the beginning of each part of the Table and R^1, R^2, X and Y are as defined in the Table.
as §2

A further test concerns Gibberella Fujikuroi. Nature of the test: Activity against bakanae disease of rice plants by seed soaking (Experiment 5). Set-up: key: 0 = disease as untreated, 5 = no disease (complete control). The following applies: infected rice seeds (variety Tanginbozu) immersed 3 days in aqueous suspension (concentration not given), 3 weeks; number of diseased seedlings. As for the experimental part: Ten grams of rice seeds (variety Tanginbozu), infected with Gibberella Fujikuroi, were immersed in 20 ml of an aqueous suspension of the test compound for 3 days. At the end of this time, the treated seeds were densely sown in soil in pots, and the pots were placed in a greenhouse at 20 - 30 °C for 3 weeks. The disease controlling index was given on the basis of the number of diseased seedlings.
as §1, §2

For test [4], the system named is Erysiphe graminis f.sp. hordei. Nature of the test: Curative activity against powdery mildew of barley (Experiment 7). The following applies: barley seedlings (variety Sekishinriki), sprayed one day after inoculation at 3 ppm (30 ml/3 pots), further 10 days; diseased area on the first leaf. As for the experimental part:
Barley seedlings (variety […]) at the first leaf stage were inoculated with conidia of Erysiphe graminis f.sp. hordei and kept in a greenhouse at 15 - 20°C. After one day, the seedlings were sprayed with an aqueous suspension of the test compound at a concentration of 3 ppm (30 ml/3 pots), and they continued to be kept in the greenhouse at that temperature for a further 10 days. The disease controlling index was given on the basis of the diseased area on the first leaf.

A further test relates to Candida albicans. Nature of the test: ED50 in mice infected with Candida albicans, oral treatment (Experiment 11). The following applies: 360 h, treated orally, fifteen days after infection. As for the experimental part: Groups of mice (each group contained 10 mice) were inoculated with 7 to 9 x 10^6 spores per mouse of Candida albicans. 1, 4, and 24 hours after the inoculation, each mouse was orally administered 20 mg/kg of the test compound each time. The anti-fungal activity was assessed by the survival rate 9 days after infection. The survival rate was recorded as 0% 2 days after infection in an untreated (control) group. […] Following essentially the same procedure as that described in Experiment 10, mice were infected with Candida albicans, and treated orally with various compounds of the invention, as shown in the following Table 21. Fifteen days after infection (or fourteen days in the case of the compounds of Example Nos. 5 and 10), ED50 values were determined and are reported in the following Table 21.

Regarding `C[C@@H](N=[N+]=[N-])[C@](O)(Cn1cncn1)c1ccc(Cl)cc1Cl` (relative stereo) [Example 2, (2R*, 3R*)-3-Azido-2-(2,4-dichlorophenyl)-l-(lH-1,2,4-triazol-1-yl)-2-butanol], the disease controlling index is 4 (disease rate is less than 10% of the untreated plant) with Pyricularia oryzae, 5 in the test on Rhizoctonia solani [1], 5 in the test with Rhizoctonia solani [2] and 5 in the test on Puccinia recondita. The “Index (disease controlling index)” value in the test on Sphaerotheca fuliginea and in the test on Venturia inaequalis was 5 throughout.

For the compound `C[C@@H](CCN=[N+]=[N-])[C@](O)(Cn1cncn1)c1ccc(F)cc1F` (relative stereo) [Example 81, (2R*, 3S*)-5-Azido-2-(2,4-difluorophenyl)-3-methyl-1-(1H-1,2,4-triazol-1-yl)-2-pentanol], the disease controlling index is recorded as 5 in the test on Pyricularia oryzae; 5 in the test on Rhizoctonia solani [3]; 5 in the test on Rhizoctonia solani [1]; 4 (disease rate is less than 10% of the untreated plant) in the test on Rhizoctonia solani [2]; 5 in the test with Gibberella Fujikuroi; 5 in the test on Puccinia recondita.

As for `CC(N=[N+]=[N-])[C@H](C)[C@](O)(Cn1cncn1)c1ccc(F)cc1F` (single isomer, unassigned) [83 (C-4 isomer 1), (2R*, 3S*)-4-Azido-2-(2,4-difluorophenyl)-3-methyl-1-(1H-1,2,4-triazol-1-yl)-2-pentanol], the disease controlling index in the test with Pyricularia oryzae, in the test with Rhizoctonia solani [3], in the test on Rhizoctonia solani [1], with Rhizoctonia solani [2], in the test on Gibberella Fujikuroi and in the test with Puccinia recondita was 5 in each case. In test [4], this compound had a disease controlling index of 5. Further, the “Index (disease controlling index)” value in the test with Sphaerotheca fuliginea and with Venturia inaequalis was 5 each time.

`CC(N=[N+]=[N-])[C@H](C)[C@](O)(Cn1cncn1)c1ccc(F)cc1F` (single isomer, unassigned) [83 (oxalate, C-4 isomer 2), (2R*, 3S*)-4-Azido-2-(2,4-difluorophenyl)-3-methyl-1-(1H-1,2,4-triazol-1-yl)-2-pentanol]: the disease controlling index in the test with Pyricularia oryzae is 5; with Rhizoctonia solani [3], 5; in the test on Rhizoctonia solani [1] it was 5; in the test with Rhizoctonia solani [2] it was 4 (disease rate is less than 10% of the untreated plant); in the test on Gibberella Fujikuroi, 5; in the test with Puccinia recondita, 5. In addition, the disease controlling index in test [4] is 5. Moreover, the “Index (disease controlling index)” value with Sphaerotheca fuliginea and in the test with Venturia inaequalis was 5 throughout.

As for `O=C(NCC(O)(Cn1cncn1)c1ccc(Cl)cc1Cl)c1ccc(Cl)cc1` (centres unmarked) [Compound X, 3-(4-chlorobenzoylamino)-2-(2,4-dichlorophenyl)-1-(1H-1,2,4-triaiol-1-yl)-2-propanol, reference compound], the disease controlling index in the test with Pyricularia oryzae, in the test on Rhizoctonia solani [1] and with Rhizoctonia solani [2] was 0 each time.

As for `C[C@@H](NC(=O)c1ccc(C#N)cc1)[C@](O)(Cn1cncn1)c1ccc(F)cc1F` [Example 67], the disease controlling index (in the test on Rhizoctonia solani [3]; with Rhizoctonia solani [1]; in the test on Puccinia recondita; in test [4]) was 4 (disease rate is less than 10% of the untreated plant) each time. Moreover, the “Index (disease controlling index)” value with Sphaerotheca fuliginea turned out to be 5. The compound also yielded a median effective dose (ED50) in the test on Candida albicans of 1.25 mg/kg.

`C[C@@H](N=[N+]=[N-])[C@](O)(Cn1cncn1)c1ccc(F)cc1F` [Example 99, (2R, 3R)-3-Azido-2-(2,4-difluorophenyl)-1-(1H-1,2,4-triazol-1-yl)-2-butanol]: the disease controlling index is 5 in the test on Pyricularia oryzae, 5 in the test on Rhizoctonia solani [1], 4 (disease rate is less than 10% of the untreated plant) with Rhizoctonia solani [2] and 5 in the test on Gibberella Fujikuroi. Further, the “Index (disease controlling index)” value with Sphaerotheca fuliginea and in the test with Venturia inaequalis was 5 in each case.

In turn, `C[C@@H](NC(=O)c1ccc(C(F)(F)F)cc1)[C@](O)(Cn1cncn1)c1ccc(Cl)cc1` [Example 103, (2R, 3R)-2-(4-Chlorophenyl)-1-(1H-1,2,4-triazol-1-yl)-3-[(4-trifluoromethyl)benzoylamino]-2-butanol] gave a median effective dose (ED50) in the test on Candida albicans of 0.48 mg/kg.

`CC(=O)N1CCN(c2ccc(OCC3COC(Cn4ccnc4)(c4ccc(Cl)cc4Cl)O3)cc2)CC1` (centres unmarked) [ketoconazole, reference compound] came in with an ED50 in the test with Candida albicans of 31.4 mg/kg.

What is called ED50 is the midpoint of the dose-response relation.

(Values after EP0332387B1, “Triazole derivatives, their preparation and their use as fungicides” (Sankyo Company Limited, priority 1988, dated 1989).)
